According to patent US20250163043A1 (TRANSTHERA SCIENCES (NANJING), INC., priority 2021, published 2025):

What was measured:
Assay type in all cases: biochemical
[1] = biological target: CDK9/CycT1 (Homo sapiens, UniProt P50750); assay: ADP-Glo kinase assay on CDK enzymatic activity, CDK9/CycT1; settings: 10 concentrations from 10 μM, 4-fold, 60 min room temperature
Outline: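 Steps: compound (10 μM top, 4-fold series) plus kinase, 10 min RT; add substrate/ATP mix, 60 min RT; ADP-Glo reagent 40 min; detection reagent 40 min; read luminescence. Inhibition referenced to AZD4573 (1 μM) and DMSO vehicle; IC50 by nonlinear fit.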

[2] = biological target: CDK5/p25NCK (Homo sapiens, UniProt Q00535); assay: ADP-Glo kinase assay on CDK enzymatic activity, CDK5/p25NCK; settings: 10 concentrations from 10 μM, 4-fold, 60 min room temperature
CDK5/p25NCK, sequence (Q00535 whole entry, species assumed): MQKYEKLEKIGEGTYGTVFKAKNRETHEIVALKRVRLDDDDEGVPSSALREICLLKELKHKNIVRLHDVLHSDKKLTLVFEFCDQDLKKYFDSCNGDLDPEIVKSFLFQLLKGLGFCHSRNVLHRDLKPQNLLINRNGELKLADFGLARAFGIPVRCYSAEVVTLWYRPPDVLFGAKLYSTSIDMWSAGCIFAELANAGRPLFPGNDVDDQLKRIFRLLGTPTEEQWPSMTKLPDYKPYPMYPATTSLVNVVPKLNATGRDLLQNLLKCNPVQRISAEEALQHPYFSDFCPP
CDK5/p25NCK, sequence (Q15078 99-307 partner limits assumed, species assumed): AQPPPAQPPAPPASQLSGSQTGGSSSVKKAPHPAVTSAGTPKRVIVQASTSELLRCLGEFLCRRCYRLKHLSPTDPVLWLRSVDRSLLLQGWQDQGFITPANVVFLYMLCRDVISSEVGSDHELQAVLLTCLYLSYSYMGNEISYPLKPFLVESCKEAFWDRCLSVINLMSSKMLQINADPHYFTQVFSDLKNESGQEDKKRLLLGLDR
Text: (§1) Test samples: the compounds of the present invention, having structures shown above.
(§2) ADP-Glo Kinase Assay (ADP-Glo kinase kit), DMSO (dimethyl sulfoxide), CDK9/CycT1 (cyclin-dependent kinase 9/cyclin T1), CDK tide (cyclin-dependent kinase substrate peptide fragments), CDK1/CycE1 (cyclin-dependent kinase 1/cyclin E1), CDK2/CycA2 (cyclin-dependent kinase 2/cyclin A2), CDK3/CycE1 (cyclin-dependent kinase 3/cyclin E1), CDK4/CycD3 (cyclin-dependent kinase 4/cyclin D3), CDK5/p25NCK (cyclin-dependent kinase 5/p25), and AZD 4573.
(§3) A 384-well white plate, a 96-well plate, a microplate oscillator, a centrifuge, and a microplate reader.
(§4) The compounds were dissolved in DMSO and diluted 4-fold in the 96-well plate to obtain stock solutions with 10 concentration gradients, and added into a 384-well plate system to obtain a series of 10 concentration gradients of compound solutions with final concentrations of 10 μM starting and 4-fold gradient decreasing. 1 μM AZD4573 was used as compound positive control (PC) and 0.5% DMSO as solvent vehicle control (VC), ten duplicated wells each for PC and VC.
(§5) 1 μL of compound solution and 2 μL of 2× kinase solution were transferred to each well, and the plate was centrifuged at 1000 g for 30 s and left at room temperature for 10 min. A mixture of 2× substrate and ATP was prepared in 1× kinase buffer. The reaction was started after adding 2 μL of substrate and ATP into the plate. The plate was centrifuged at 1000 g for 30 s. The assay plate was closed and left at room temperature for 60 min. The reaction system was added with 4 μL of ADP Glo reagent, centrifuged at 1000 rpm for 1 min, and incubated at room temperature for 40 min. The reaction system was added with 8 μL of kinase assay reagent, centrifuged at 1000 rpm for 1 min and incubated at room temperature for 40 min. The […] was read on Biotek.
(§6) The inhibition rate was calculated according to the following formula: […]
(§7) Lumcmpd: compound fluorescence reading; Lumpositive: average value of the fluorescence reading of positive compound control; Lumvehicle: average value of the fluorescence reading of solvent vehicle control.
(§8) IC50 values were fitted using GraphPad 7.0 based on inhibition rates of compounds at different concentrations.

[3] = biological target: CDK2/CycA2 (Homo sapiens, UniProt P24941); assay: ADP-Glo kinase assay on CDK enzymatic activity, CDK2/CycA2; settings: 10 concentrations from 10 μM, 4-fold, 60 min room temperature
Text: as §1, §2, §3, §4, §5, §6, §7, §8

[4] = biological target: CDK3/CycE1 (Homo sapiens, UniProt Q00526); assay: ADP-Glo kinase assay on CDK enzymatic activity, CDK3/CycE1; settings: 10 concentrations from 10 μM, 4-fold, 60 min room temperature
CDK3/CycE1, sequence (Q00526 whole entry, species assumed): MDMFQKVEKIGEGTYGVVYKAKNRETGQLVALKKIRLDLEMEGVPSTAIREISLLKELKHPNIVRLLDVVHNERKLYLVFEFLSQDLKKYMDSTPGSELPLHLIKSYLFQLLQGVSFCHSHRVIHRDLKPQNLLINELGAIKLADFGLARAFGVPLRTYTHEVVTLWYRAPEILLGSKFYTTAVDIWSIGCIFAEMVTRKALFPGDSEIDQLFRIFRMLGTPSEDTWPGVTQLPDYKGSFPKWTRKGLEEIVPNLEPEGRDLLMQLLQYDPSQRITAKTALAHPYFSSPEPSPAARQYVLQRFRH
CDK3/CycE1, sequence (P24864 whole entry partner, species assumed): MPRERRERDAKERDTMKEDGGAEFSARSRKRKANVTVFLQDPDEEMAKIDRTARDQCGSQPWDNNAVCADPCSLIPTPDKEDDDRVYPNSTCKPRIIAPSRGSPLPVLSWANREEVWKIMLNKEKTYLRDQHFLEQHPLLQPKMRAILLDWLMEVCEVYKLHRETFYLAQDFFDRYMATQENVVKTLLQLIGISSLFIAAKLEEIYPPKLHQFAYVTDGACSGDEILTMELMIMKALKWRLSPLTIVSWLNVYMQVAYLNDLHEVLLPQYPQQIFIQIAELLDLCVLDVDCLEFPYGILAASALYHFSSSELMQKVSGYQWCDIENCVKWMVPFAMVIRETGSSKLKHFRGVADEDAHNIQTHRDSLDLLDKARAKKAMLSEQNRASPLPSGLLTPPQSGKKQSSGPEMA
Text: as §1, §2, §3, §4, §5, §6, §7, §8

[5] = biological target: CDK1/CycE1 (Homo sapiens, UniProt P06493); assay: ADP-Glo kinase assay on CDK enzymatic activity, CDK1/CycE1; settings: ADP-Glo; 10 concentrations from 10 μM, 4-fold; 60 min room temperature; read-out: CDK1/CycE1/nM (IC50)
CDK1/CycE1, sequence (P06493 whole entry, species assumed): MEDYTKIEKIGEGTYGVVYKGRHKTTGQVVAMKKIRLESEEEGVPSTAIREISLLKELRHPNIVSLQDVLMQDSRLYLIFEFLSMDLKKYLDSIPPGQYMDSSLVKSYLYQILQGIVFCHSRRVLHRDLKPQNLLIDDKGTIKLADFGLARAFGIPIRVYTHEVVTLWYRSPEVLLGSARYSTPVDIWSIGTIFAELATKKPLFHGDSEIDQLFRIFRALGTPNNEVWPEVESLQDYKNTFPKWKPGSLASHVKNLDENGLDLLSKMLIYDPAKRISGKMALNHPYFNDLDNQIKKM
CDK1/CycE1, sequence (P24864 whole entry partner, species assumed): as the sequence (P24864 whole entry partner, species assumed) above
Protocol: as §1, §3, §4, §5, §6, §7, §8

CDK9/CycT1, sequence (P50750 whole entry): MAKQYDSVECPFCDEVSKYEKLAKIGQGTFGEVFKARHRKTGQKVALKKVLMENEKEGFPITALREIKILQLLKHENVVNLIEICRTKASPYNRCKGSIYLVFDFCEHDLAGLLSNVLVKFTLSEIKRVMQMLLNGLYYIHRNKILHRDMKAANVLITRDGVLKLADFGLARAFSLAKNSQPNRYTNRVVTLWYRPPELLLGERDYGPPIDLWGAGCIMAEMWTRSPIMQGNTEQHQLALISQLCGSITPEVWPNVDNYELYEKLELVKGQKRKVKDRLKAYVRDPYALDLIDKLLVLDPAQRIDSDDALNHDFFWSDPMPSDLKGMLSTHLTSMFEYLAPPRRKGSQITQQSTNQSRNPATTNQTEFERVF
CDK9/CycT1, sequence (O60563 whole entry partner): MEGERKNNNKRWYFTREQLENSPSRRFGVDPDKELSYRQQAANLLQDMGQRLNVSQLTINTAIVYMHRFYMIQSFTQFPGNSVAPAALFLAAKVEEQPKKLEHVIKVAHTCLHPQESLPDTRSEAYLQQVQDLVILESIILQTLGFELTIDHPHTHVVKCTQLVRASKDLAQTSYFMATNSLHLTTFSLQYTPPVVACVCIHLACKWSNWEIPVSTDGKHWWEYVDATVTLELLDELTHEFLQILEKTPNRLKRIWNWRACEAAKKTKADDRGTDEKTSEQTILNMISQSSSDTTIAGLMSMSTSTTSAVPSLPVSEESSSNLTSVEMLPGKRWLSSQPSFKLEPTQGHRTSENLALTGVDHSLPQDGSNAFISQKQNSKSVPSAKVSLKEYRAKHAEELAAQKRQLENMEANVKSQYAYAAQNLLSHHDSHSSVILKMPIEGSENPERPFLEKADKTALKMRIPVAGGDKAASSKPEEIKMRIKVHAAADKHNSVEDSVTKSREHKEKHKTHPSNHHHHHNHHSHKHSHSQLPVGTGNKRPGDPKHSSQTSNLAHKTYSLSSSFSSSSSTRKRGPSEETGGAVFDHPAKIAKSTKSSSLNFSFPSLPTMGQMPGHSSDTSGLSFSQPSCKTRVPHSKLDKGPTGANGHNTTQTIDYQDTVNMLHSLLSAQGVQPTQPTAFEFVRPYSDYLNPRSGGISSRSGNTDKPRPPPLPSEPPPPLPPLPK

| Structure (SMILES) | IC50 [1] [nM] | IC50 [2] [nM] | IC50 [3] [nM] | IC50 [4] [nM] | IC50 [5] [nM] |
| --- | --- | --- | --- | --- | --- |
| CC(C)(C)Nc1nc(C#N)cc2cnc(N[C@H]3CC[C@H](O)C3)cc12 [Compound 35, 1-(tert-butylamino)-7-(((1S,3S)-3hydroxycyclopentyl)amino)-2,6-naphthyridine-3-carbonitrile] | 1 | 36 | 14 | 35 |  |
| CC(C)Nc1nc(C#N)cc2cnc(N[C@H]3CCCNC3)cc12 [Compound 38, (S)-1-(isopropylamino)-7-(piperidin-3-ylamino)-2,6-naphthyridine-3-carbonitrile] | 2 | 103 | 110 | 66 | 83 |
| CC(C)Nc1nc(C#N)cc2cnc(N[C@@H]3CCCNC3)cc12 [Compound 39, (R)-1-(isopropylamino)-7-(piperidin-3-ylamino)-2,6-naphthyridine-3-carbonitrile] | 2 | 161 | 84 | 278 |  |
| CC(C)Nc1nc(C#N)cc2cnc(N[C@@H]3CNCC(F)(F)C3)cc12 [Compound 43, (S)-7-((5,5-difluoropiperidin-3-yl)amino)-1-(isopropylamino)-2,6-naphthyridine-3-carbonitrile] | 2 | 23 | 13 | 75 |  |
| CC(C)Nc1nc(C#N)cc2cnc(N[C@@H]3CN4CCC3CC4)cc12 [Compound 44, (S)-1-(isopropylamino)-7-(quinuclidin-3-ylamino)-2,6-naphthyridine-3-carbonitrile] | 2 | 3630 | 1170 | 288 |  |
| CCC(CC)Nc1nc(C#N)cc2cnc(N[C@H]3CC[C@H](N)C3)cc12 [Compound 48, 7-(((1S,3S)-3-aminocyclopentyl)amino)-1-(pentan-3-ylamino)-2,6-naphthyridine-3-carbonitrile] | 2 | 266 | 199 | 477 |  |
| N#Cc1cc2cnc(N[C@H]3CC[C@H](N)C3)cc2c(NC2CCCC2)n1 [Compound 49, 7-(((1S,3S)-3-aminocyclopentyl)amino)-1-(cyclopentylamino)-2,6-naphthyridine-3-carbonitrile] | 2 | 93 | 57 | 105 |  |
| CC1(Nc2nc(C#N)cc3cnc(N[C@H]4CC[C@H](N)C4)cc23)CC1 [Compound 50, 7-(((1S,3S)-3-aminocyclopentyl)amino)-1-((1-methylcyclopropyl)amino)-2,6-naphthyridine-3-carbonitrile] | 2 | 119 | 73 | 208 |  |
| CC(C)Oc1nc(C#N)cc2cnc(N[C@H]3CC[C@H](N)C3)cc12 [Compound 51, 7-(((1S,3S)-3-aminocyclopentyl)amino)-1-isopropoxy-2,6-naphthyridine-3-carbonitrile] | 1 | 142 | 73 | 88 |  |
| CC(C)Nc1nc(C(F)F)cc2cnc(N[C@H]3CCCNC3)cc12 [Compound 54, (S)-3-(difluoromethyl)-N^1-isopropyl-N^7-(piperidin-3-yl)-2,6-naphthyridine-1,7-diamine] | 1 | 10 | 15 | 14 |  |
| N#Cc1cc2cnc(N[C@H]3CC[C@H](N)C3)cc2c(NCC2(C#N)CCOCC2)n1 [Compound 60, 7-(((1S,3S)-3-aminocyclopentyl)amino)-1-(((4-cyanotetrahydro-2H-pyran-4-yl)methyl)amino)-2,6-naphthyridine-3-carbonitrile] | 29 | 8390 | 1810 | ≥ 12100 |  |
| CC(Nc1nc(C#N)cc2cnc(N[C@H]3CCCNC3)cc12)C(F)(F)F (stereo partly drawn) [Compound 61, 7-(((S)-piperidin-3-yl)amino)-1-((1,1,1-trifluoropropan-2-yl)amino)-2,6-naphthyridine-3-carbonitrile] | 3 | 484 | 227 | 124 | 173 |
| CC(C)Nc1nc(C#N)cc2cnc(N[C@H]3CC[C@H](C)NC3)cc12 [Compound 103, 1-(isopropylamino)-7-(((3S,6S)-6-methylpiperidin-3-yl)amino)-2,6-naphthyridine-3-carbonitrile] | 3 | 294 | 167 | 398 | 206 |
| N#Cc1cc2cnc(N[C@H]3CCCNC3)cc2c(N[C@H](CO)c2ccccc2)n1 [Compound 104, 1-(((S)-2-hydroxy-1-phenylethyl)amino)-7-(((S)-piperidin-3-yl)amino)-2,6-naphthyridine-3-carbonitrile] | 10 | 2200 | 888 | 550 |  |
| CC(C)Nc1nc(C#N)cc2cnc(N[C@H]3CCCOC3)nc12 [Compound 116, (S)-8-(isopropylamino)-2-((tetrahydro-2H-pyran-3-yl)amino)pyrido[3,4-d]pyrimidine-6-carbonitrile] | 2 | 63 | 29 | 92 | 114 |
| CC(C)Nc1nc(C#N)cc2cnc(N[C@H]3CC[C@H](O)C3)nc12 [Compound 122, 2-(((1S,3S)-3-hydroxycyclopentyl)amino)-8-(isopropylamino)pyrido[3,4-d]pyrimidine-6-carbonitrile] | 1 | 17 | 6 | 8 | 3 |
| CC(C)Nc1nc(C#N)cc2cnc(N[C@H]3C[C@@H](N)C3)nc12 [Compound 126, 2-(((1s,3s)-3-aminocyclobutyl)amino)-8-(isopropylamino)pyrido[3,4-d]pyrimidine-6-carbonitrile] | 2 | 238 | 181 | 287 | 95 |
| CC(C)Nc1nc(C#N)cc2cnc(N[C@H]3C[C@H](N)C3)nc12 [Compound 127, 2-(((1r,3r)-3-aminocyclobutyl)amino)-8-(isopropylamino)pyrido[3,4-d]pyrimidine-6-carbonitrile] | 1 | 46 | 14 | 8 | 10 |
| CC(C)Nc1nc(C#N)cc2cnc(NC34CC(N)(C3)C4)nc12 [Compound 128, 2-((3-aminobicyclo[1.1.1]pentan-1-yl)amino)-8-(isopropylamino)pyrido[3,4-d]pyrimidine-6-carbonitrile] | 2 | 65 | 54 | 34 | 43 |
| CC(C)Nc1nc(C#N)cc2cnc(NC3CC4(CNC4)C3)nc12 [Compound 130, 2-((2-azaspiro[3.3]heptan-6-yl)amino)-8-(isopropylamino)pyrido[3,4-d]pyrimidine-6-carbonitrile] | 2 | 447 | 74 | 32 | 25 |
| CC(C)Nc1nc(C#N)cc2cnc(N[C@H]3CCCNCC3)nc12 [Compound 131, (S)-2-(azepan-4-ylamino)-8-(isopropylamino)pyrido[3,4-d]pyrimidine-6-carbonitrile] | 6 | 1530 | 388 | 629 | 678 |
| CC(C)Nc1nc(C#N)cc2cnc(N[C@H]3CC[C@H](N)CC3)nc12 [Compound 136, 2-(((1r,4r)-4-aminocyclohexyl)amino)-8-(isopropylamino)pyrido[3,4-d]pyrimidine-6-carbonitrile] | 2 | 116 | 13 | 27 | 315 |
| CC(C)Nc1nc(C#N)cc2cnc(N[C@H]3CCCCNC3)cc12 [Compound 142, (S)-7-(azepan-3-ylamino)-1-(isopropylamino)-2,6-naphthyridine-3-carbonitrile] | 2 | 306 | 600 | 66 | 90 |
